Tests used:
[1] = system: primary respiratory epithelial cells from Oxgr1+/+ and Oxgr1–/– mice; assay: Calcium imaging (Fluo-4AM) of primary mouse trachea epithelial cells; assay type: cell-based; conditions: 670 μM ITA or 100 μM ATP
Description: For calcium imaging of human primary bronchial epithelial cells, cells were infected with 2 CRISPR lentiviruses targeting OXGR1 and cultured for 2 days before calcium imaging. For calcium imaging of primary mouse cells, freshly isolated mouse tracheas were cut into rings, placed onto collagen-coated dishes, and cultured in DMEM supplemented with 10% FBS. Cells were loaded with 5 μM Fluo-4AM for 30 minutes in HBSS buffer, washed twice, and incubated for another 15 minutes for fully deesterification of Fluo-4AM. Cells loaded with Fluo-4AM were monitored with the BioTek Cytation 5 Cell imaging system every 300 ms for a total of 1.5 minutes after ligand administration. Fluorescence was quantified with ImageJ software (NIH).

mouse trachea = assay: Ex vivo trachea culture, cilia beating-derived fluorescent bead movement; conditions: 500 μM ITA or 100 μM ATP
Description: Tracheas were harvested from mice and cut longitudinally through the middle of the trachealis muscle to expose the lumen of the trachea. Tracheas were then transferred into HBSS buffer and equilibrated for 30 minutes. With the lumen facing down, trachea tissues were transferred into 2 mL HBSS buffer supplemented with 0.5% methylcellulose, red fluorescent beads, 30 mM HEPES, and the indicated ligand. Bead flow was monitored with the BioTek Cytation 5 cell imaging system. Twenty individual beads were tracked from different fields of view in each condition, and the speed of each bead was calculated by […].

human OXGR1 [2] = target: T1, human OXGR1 (Homo sapiens, UniProt Q96P68); assay: Fluo-4 assay in HEK293 cells expressing human OXGR1; assay type: cell-based
Description: For the Fluo-4AM assay, OXGR1-expressing cells were loaded with 2 μM Fluo-4AM for 30 minutes at 37°C. Excess Fluo-4AM was then washed off with HBSS buffer. After incubation at 37°C for another 10 minutes, cells were transferred onto a 96-well plate.

FLAG-tagged OXGR1 = target: T2, FLAG-tagged OXGR1 (Homo sapiens, UniProt Q96P68); assay: Endocytosis assay of FLAG-tagged OXGR1 in HEK293 cells; assay type: cell-based; conditions: WT OXGR1, within 10 minutes of ligand treatment
T2 construct: expressed in transfected cells
Description: For endocytosis assays, HEK293 cells stably expressing FLAG-OXGR1 were chilled on ice in DMEM medium supplemented with 30 mM HEPES for 10 minutes. […] Unbound antibody was then washed off with prechilled HBSS buffer. […] After ligand stimulation, cells were fixed and permeabilized. Subcellular localization of FLAG-tagged OXGR1 was detected using FITC-donkey anti-rabbit antibody (Invitrogen, Thermo Fisher Scientific), and nuclei were stained with DAPI (MilliporeSigma). Immunofluorescence images were captured with a Leica SP8 laser-scanning confocal microscope.

mouse OXGR1 = target: T3, mouse OXGR1 (Mus musculus, UniProt Q6IYF8); assay: Aequorin assay (calcium mobilization) in HEK293 cells overexpressing mouse OXGR1; assay type: cell-based; conditions: EC50, aequorin assay, mOXGR1 in HEK293 cells
T3 construct: expressed in transfected cells; host or cells: HEK293
T3 sequence (Q6IYF8 whole entry): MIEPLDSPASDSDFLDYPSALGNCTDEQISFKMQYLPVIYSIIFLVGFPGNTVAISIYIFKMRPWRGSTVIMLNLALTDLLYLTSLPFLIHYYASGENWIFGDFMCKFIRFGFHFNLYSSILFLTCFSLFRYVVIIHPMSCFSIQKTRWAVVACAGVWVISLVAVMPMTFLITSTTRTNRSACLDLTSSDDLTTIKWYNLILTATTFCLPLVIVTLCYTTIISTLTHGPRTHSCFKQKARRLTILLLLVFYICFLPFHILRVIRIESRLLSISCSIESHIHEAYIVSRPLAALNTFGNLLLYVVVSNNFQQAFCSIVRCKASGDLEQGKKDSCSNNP
Description: (§1) Thirty-six hours after transfection, cells were maintained in serum-free medium for 12 hours and then loaded with 5 μM coelenterazine for 3 hours. Cells were trypsinized and resuspended at a density of 5 × 10^5 cells/mL in HBSS supplemented with 10 mM HEPES and 0.5% BSA. Cell suspensions of 100 μL were aliquoted into 96-well plates.

human OXGR1 [3] = target: T1, human OXGR1; assay: Aequorin assay (calcium mobilization) in HEK293 cells overexpressing human OXGR1; assay type: cell-based
Description: as §1

| SMILES | calcium mobilization, Oxgr1+/+ cells [1] | calcium mobilization, Oxgr1–/– cells [1] | movement of beads, trachea from Oxgr1+/+ mice (mouse trachea) | movement of beads, trachea from Oxgr1–/– mice (mouse trachea) | EC50 (human OXGR1 [2]) [µM] | endocytosis of OXGR1 (FLAG-tagged OXGR1) | EC50 (mouse OXGR1) [µM] | EC50 (human OXGR1 [3]) [µM] | calcium response (agonist effect) (human OXGR1 [3]; HEK293 cells overexpressing human OXGR1, aequorin) | effect on α-KG– or ITA-triggered intracellular Ca2+ release (human OXGR1 [3]; addition of LTE4, OXGR1-expressing HEK293 cells) |
| --- | --- | --- | --- | --- | --- | --- | --- | --- | --- | --- |
| Nc1ncnc2c1ncn2[C@@H]1O[C@H](COP(=O)(O)OP(=O)(O)OP(=O)(O)O)[C@@H](O)[C@H]1O [ATP, reference compound] | normal calcium release | normal calcium release | comparable speed of bead movement | comparable speed of bead movement | – | – | – | – | – | – |
| O=C(O)CCC(=O)C(=O)O [α-KG, α-ketoglutaric acid, reference compound] | – | – | – | – | 161 ± 34.7 | rapid endocytosis of OXGR1 was triggered | 241 ± 61.1 | 248 ± 58.6 | – | – |
| CCCCC/C=C\C\C=C/C=C/C=C/[C@@H](SC[C@H](N)C(=O)O)[C@@H](O)CCCC(=O)O [LTE4, Leukotriene E4, reference compound] | – | – | – | – | – | failed to show any agonizing effect | – | – | failed to show any agonizing effect | did not prevent, and even moderately enhanced |

From PMC10014103, “The immunometabolite itaconate stimulates OXGR1 to promote mucociliary clearance during the pulmonary innate immune response” (The Journal of Clinical Investigation, 2023)
